Experiment [1] addresses NAMPT (human, recombinant, C-terminally His-tagged) (Homo sapiens, UniProt P43490). The experiment can be described thus: Time-Resolved Fluorescence Resonance Energy Transfer (TR-FRET) Binding Assay of NAMPT. The settings on record: absence of substrates; 6.8 nM NAMPT, 200 nM probe, equilibrated 3 hours. An outline of the steps:
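Compounds (typically 11 half-log dilutions, 2% DMSO final) equilibrated 3 h at room temperature with 6.8 nM human C-His NAMPT, 1 nM Tb-anti-His antibody and 200 nM fluorescent competitive probe in pH 7.5 HEPES buffer. IC50 derived by logistic fit of normalized TR-FRET ratio (520/495 nm).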

For the next experiment, the target named is NAMPT (Homo sapiens, UniProt P43490). Put plainly: Time-Resolved Fluorescence Resonance Energy Transfer (TR-FRET) Binding Assay of NAMPT with PRPP. The note with it: 200 μM PRPP and 2.5 mM ATP; 2 nM NAMPT, 2 nM probe, equilibrated 16 hours. An outline of the steps: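 Compounds were equilibrated for 16 hours before TR-FRET readout, with substrates present (200 μM PRPP, 2.5 mM ATP) to permit enzymatic modification. Final mix: 2 nM His-tagged NAMPT, 2 nM probe, 1 nM Tb-anti-His antibody, 2% DMSO.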

Each structure is given as a SMILES string. pIC50: −log10 of the molar value.

Chain of NAMPT (human, recombinant, C-terminally His-tagged) (P43490 whole entry): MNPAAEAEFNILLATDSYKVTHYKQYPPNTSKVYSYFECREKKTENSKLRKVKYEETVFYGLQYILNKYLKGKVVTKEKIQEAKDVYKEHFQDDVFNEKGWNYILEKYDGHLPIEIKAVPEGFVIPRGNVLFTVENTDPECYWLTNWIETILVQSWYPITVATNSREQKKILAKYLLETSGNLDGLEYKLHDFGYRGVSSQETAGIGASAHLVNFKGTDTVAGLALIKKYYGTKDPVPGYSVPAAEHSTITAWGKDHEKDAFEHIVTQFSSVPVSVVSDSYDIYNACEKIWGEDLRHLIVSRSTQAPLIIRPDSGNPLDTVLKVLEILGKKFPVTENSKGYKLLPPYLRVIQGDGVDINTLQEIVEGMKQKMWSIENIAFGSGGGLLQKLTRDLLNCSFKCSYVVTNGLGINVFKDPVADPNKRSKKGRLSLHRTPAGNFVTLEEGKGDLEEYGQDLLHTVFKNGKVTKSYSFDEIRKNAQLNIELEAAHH
Chain of NAMPT (P43490 whole entry): as above

Consider `COC1CCN(C(=O)N(Cc2ccc(F)cc2)c2ncc(C(=O)NCCCn3ccnc3)s2)C1` (centres unmarked) [Example 68, 2-{(4-fluorobenzyl)[(3-methoxypyrrolidin-1-yl)carbonyl]amino}-N-[3-(1H-imidazol-1-yl)propyl]-1,3-thiazole-5-carboxamide], for which the figures for the pIC50 (in experiment [1]; at NAMPT) were less than 5.00 and 8.33, respectively.
On the same counts, the results for `CC(C)CCN(C(=O)C1CCOC1)c1ncc(C(=O)NCCCn2ccnc2)s1` (centres unmarked) [Example 155, N-[3-(1H-imidazol-1-yl)propyl]-2-[(3-methylbutyl)(tetrahydrofuran-3-ylcarbonyl)amino]-1,3-thiazole-5-carboxamide] are 6.17 and 9.60.
On the same counts, the results for `COCCC(=O)N(CCc1ccc(Cl)cn1)c1ncc(C(=O)NCCCn2ccnc2)s1` [Example 207, 2-{[2-(5-chloropyridin-2-yl)ethyl](3-methoxypropanoyl)amino}-N-[3-(1H-imidazol-1-yl)propyl]-1,3-thiazole-5-carboxamide] are 5.41 and 9.48.
For `COCCC(=O)N(CC1CCC(=O)N1)c1ncc(C(=O)NCCCn2ccnc2)s1` (centres unmarked) [Example 194, N-[3-(1H-imidazol-1-yl)propyl]-2-{(3-methoxypropanoyl)[(5-oxopyrrolidin-2-yl)methyl]amino}-1,3-thiazole-5-carboxamide], in that order: 5.14 and 8.95.
Regarding `CCOC(=O)C(C)CNC(=O)N(Cc1ccc(C#N)cc1)c1ncc(C(=O)NCCCn2ccnc2)s1` (centres unmarked) [Example 165, ethyl 3-{[(4-cyanobenzyl)(5-{[3-(1H-imidazol-1-yl)propyl]carbamoyl}-1,3-thiazol-2-yl)carbamoyl]amino}-2-methylpropanoate], the pIC50 (commonly −log10 of the IC50, conventionally taken in molar units) in experiment [1] is 6.47; at NAMPT it was 7.00.
On the same counts, the results for `O=C(NCCCn1ccnc1)c1cnc(N2C[C@H](CN3C(=O)c4ccccc4C3=O)OC2=O)s1` [Example 212, 2-{(5S)-5-[(1,3-dioxo-1,3-dihydro-2H-isoindol-2-yl)methyl]-2-oxo-1,3-oxazolidin-3-yl}-N-[3-(1H-imidazol-1-yl)propyl]-1,3-thiazole-5-carboxamide] are 5.24 and 8.99.
On the same counts, the results for `CC(C)CCN(C(=O)COc1ccccc1)c1ncc(C(=O)NCCCn2ccnc2)s1` [Example 136, N-[3-(1H-imidazol-1-yl)propyl]-2-[(3-methylbutyl)(phenoxyacetyl)amino]-1,3-thiazole-5-carboxamide] are 7.61 and 9.76.
For `CC(C)CCN(Cc1ccccc1F)c1ncc(C(=O)NCCCn2ccnc2)s1` [Example 55, 2-[(2-fluorobenzyl)(3-methylbutyl)amino]-N-[3-(1H-imidazol-1-yl)propyl]-1,3-thiazole-5-carboxamide], in that order: less than 5.00 and 5.50.
On to `COCCN(C)C(=O)N(Cc1ccc(F)cc1)c1ncc(C(=O)NCCCn2ccnc2)s1` [Example 69, 2-{(4-fluorobenzyl)[(2-methoxyethyl)(methyl)carbamoyl]amino}-N-[3-(1H-imidazol-1-yl)propyl]-1,3-thiazole-5-carboxamide], for which the pIC50 in experiment [1] is less than 5.00; at NAMPT, 8.40.
For `COCCN(C(=O)Cc1ccccn1)c1ncc(C(=O)NCCCn2ccnc2)s1` [Example 213, N-[3-(1H-imidazol-1-yl)propyl]-2-[(2-methoxyethyl)(pyridin-2-ylacetyl)amino]-1,3-thiazole-5-carboxamide], in that order: 5.01 and 9.39.
For `COCCC(=O)N(CCCN1CCCC1=O)c1ncc(C(=O)NCCCn2ccnc2)s1` [Example 197, N-[3-(1H-imidazol-1-yl)propyl]-2-{(3-methoxypropanoyl)[3-(2-oxopyrrolidin-1-yl)propyl]amino}-1,3-thiazole-5-carboxamide], in that order: 5.04 and 9.60.
Regarding `COCCC(=O)N(CC(=O)N1CCCCC1)c1ncc(C(=O)NCCCn2ccnc2)s1` [Example 196, N-[3-(1H-imidazol-1-yl)propyl]-2-{(3-methoxypropanoyl)[2-oxo-2-(piperidin-1-yl)ethyl]amino}-1,3-thiazole-5-carboxamide], the pIC50 in experiment [1] was 5.15; on NAMPT it was 9.27.
For `CC(C)CCN(Cc1ccc(C#N)cc1)c1ncc(C(=O)NCCCn2ccnc2)s1` [Example 60, 2-[(4-cyanobenzyl)(3-methylbutyl)amino]-N-[3-(1H-imidazol-1-yl)propyl]-1,3-thiazole-5-carboxamide], in that order: less than 5.00 and 8.30.
Turning to `COCCN(C(=O)Cc1ccc(Oc2ccccc2)cc1)c1ncc(C(=O)NCCCn2ccnc2)s1` [Example 186, N-[3-(1H-imidazol-1-yl)propyl]-2-{(2-methoxyethyl)[(4-phenoxyphenyl)acetyl]amino}-1,3-thiazole-5-carboxamide], the pIC50 in experiment [1] was 5.96; on NAMPT it was 8.91.
On the same counts, the results for `CC(C)CCN(Cc1ccccc1Cl)c1ncc(C(=O)NCCCn2ccnc2)s1` [Example 57, 2-[(2-chlorobenzyl)(3-methylbutyl)amino]-N-[3-(1H-imidazol-1-yl)propyl]-1,3-thiazole-5-carboxamide] are less than 5.00 and 5.94.
For `N#Cc1ccc(CN(C(=O)NC2CC(C(=O)O)C2)c2ncc(C(=O)NCCCn3ccnc3)s2)cc1` (centres unmarked) [Example 164, 3-{[(4-cyanobenzyl)(5-{[3-(1H-imidazol-1-yl)propyl]carbamoyl}-1,3-thiazol-2-yl)carbamoyl]amino}cyclobutanecarboxylic acid], in that order: less than 5.00 and 6.23.
On the same counts, the results for `CN(Cc1ccc(-c2cccnc2)cc1)c1ncc(C(=O)NCCCn2ccnc2)s1` [Example 2, N-[3-(1H-imidazol-1-yl)propyl]-2-{methyl[4-(pyridin-3-yl)benzyl]amino}-1,3-thiazole-5-carboxamide] are 5.12 and 8.37.
As to `COCCC(=O)N(Cc1ncccn1)c1ncc(C(=O)NCCCn2ccnc2)s1` [Example 93, N-[3-(1H-imidazol-1-yl)propyl]-2-[(3-methoxypropanoyl)(pyrimidin-2-ylmethyl)amino]-1,3-thiazole-5-carboxamide], the pIC50 in experiment [1] is less than 5.00; at NAMPT, 7.78.
For `O=C(NCCCn1ccnc1)c1cnc(N(Cc2ccc(F)cc2)C(=O)CN2CCC3(C2)OCCO3)s1` [Example 43, 2-[(1,4-dioxa-7-azaspiro[4.4]non-7-ylacetyl)(4-fluorobenzyl)amino]-N-[3-(1H-imidazol-1-yl)propyl]-1,3-thiazole-5-carboxamide], in that order: 5.09 and 9.15.
For `CCOC(=O)CCNC(=O)N(Cc1ccc(C#N)cc1)c1ncc(C(=O)NCCCn2ccnc2)s1` [Example 159, ethyl N-[(4-cyanobenzyl)(5-{[3-(1H-imidazol-1-yl)propyl]carbamoyl}-1,3-thiazol-2-yl)carbamoyl]-beta-alaninate], in that order: 5.08 and 6.54.
As for `CC(C)CC(=O)N(Cc1ccc(C#N)cc1)c1ncc(C(=O)NCCCn2ccnc2)s1` [Example 50, 2-[(4-cyanobenzyl)(3-methylbutanoyl)amino]-N-[3-(1H-imidazol-1-yl)propyl]-1,3-thiazole-5-carboxamide], the pIC50 in experiment [1] was 5.93; at NAMPT it was 8.60.
On to `O=C(NCCCn1ccnc1)c1cnc(N(Cc2ccc(F)cc2)C(=O)c2cccc(Cl)c2)s1` [Example 12, 2-[(3-chlorobenzoyl)(4-fluorobenzyl)amino]-N-[3-(1H-imidazol-1-yl)propyl]-1,3-thiazole-5-carboxamide], for which the pIC50 in experiment [1] is 6.52; on NAMPT it was 9.62.
For `O=C(NCCCn1ccnc1)c1cnc(N2CCN(c3ccc(F)cc3)C2=O)s1` [Example 204, 2-[3-(4-fluorophenyl)-2-oxoimidazolidin-1-yl]-N-[3-(1H-imidazol-1-yl)propyl]-1,3-thiazole-5-carboxamide], in that order: 5.43 and 8.84.
Take `N#Cc1ccc(CN(C(=O)NCCCCO)c2ncc(C(=O)NCCCn3ccnc3)s2)cc1` [Example 132, 2-{(4-cyanobenzyl)[(4-hydroxybutyl)carbamoyl]amino}-N-[3-(1H-imidazol-1-yl)propyl]-1,3-thiazole-5-carboxamide]: the pIC50 in experiment [1] was 5.31; at NAMPT, 8.99.
On the same counts, the results for `N#Cc1ccc(CN(C(=O)NCCC(=O)O)c2ncc(C(=O)NCCCn3ccnc3)s2)cc1` [Example 171, N-[(4-cyanobenzyl)(5-{[3-(1H-imidazol-1-yl)propyl]carbamoyl}-1,3-thiazol-2-yl)carbamoyl]-beta-alanine] are 5.06 and 7.49.
For `COCCC(=O)N(CCc1cccc(Cl)c1)c1ncc(C(=O)NCCCn2ccnc2)s1` [Example 106, 2-{[2-(3-chlorophenyl)ethyl](3-methoxypropanoyl)amino}-N-[3-(1H-imidazol-1-yl)propyl]-1,3-thiazole-5-carboxamide acetate (1:1)], in that order: 5.71 and 8.74.
On the same counts, the results for `N#Cc1ccc(C(=O)N(Cc2ccc(F)cc2)c2ncc(C(=O)NCCCn3ccnc3)s2)cc1` [Example 11, 2-[(4-cyanobenzoyl)(4-fluorobenzyl)amino]-N-[3-(1H-imidazol-1-yl)propyl]-1,3-thiazole-5-carboxamide] are 6.32 and 9.33.
As for `COCCC(=O)N(Cc1cccc(C)c1)c1ncc(C(=O)NCCCn2ccnc2)s1` [Example 120, N-[3-(1H-imidazol-1-yl)propyl]-2-[(3-methoxypropanoyl)(3-methylbenzyl)amino]-1,3-thiazole-5-carboxamide], the results for the pIC50 (in experiment [1]; on NAMPT) were 5.42 and 8.64, respectively.

These data come from patent publication US9334264B2, “NAMPT inhibitors” (AbbVie Inc., priority 2012, dated 2016).
